In patent US11207320B2, “Compositions and methods for cancer expressing PDE3A or SLFN12” (The Broad Institute, Inc., priority 2015, dated 2021):

Tests used:
HeLa cells = test: Compound sensitivity testing in cell lines (48 h viability); type: cell-based
Experimental: 1500 NCI-H1734 or 1000 A549 cells were plated in a 384-well plate in 40 μl of RPMI supplemented with 10% Fetal Bovine Serum and 1% Pen/Strep. 24 hours after plating, a compound-library of 1924 small molecules was added at a concentration of 10 μM. Staurosporine was used a positive control for cytotoxicity at a concentration of 10 μM, and DMSO was used a negative control at a concentration of 1%. All compounds were incubated for 48 hours with indicated small molecules. After 48 hours, 384-well plates were removed from the incubator and allowed to cool to room temperature for 20 minutes. Cell viability was assessed by adding 40 μl of a 25% CELLTITERGLO® (Promega) in PBS with a THERMO COMBI™ or multichannel-pipette and incubated for 10 minutes. The luminescence signal was read using a Perkin-Elmer EnVision. Viability percentage was calculated by normalizing to DMSO controls.
1000 HeLa (DMEM), 1000 A549 (RPMI), 500 MCF-7 (DMEM), 4000 PC3 (F12-K), 1000 NCI-H2122 (RPMI) or 1500 NCI-H1563 (RPMI) cells were plated in a 384-well plate in 40 μl of corresponding growth media supplemented with 10% Fetal Bovine Serum. 24 hours after plating, indicated compounds were added at indicated concentrations and incubated for 48 hours. Cell viability was assessed as described in Compound library screening in NCI-H1734 and A549 cell lines.

PDE3A(677-1141) = target: T1, PDE3A(677-1141) (Homo sapiens, UniProt Q14432); test: Differential scanning fluorimetry (DSF) binding; conditions: 5 μM protein, 100 μM compound
T1 construct: purified PDE3A catalytic domain, PDE3A(677-1141)
T1 sequence (Q14432 677-1141): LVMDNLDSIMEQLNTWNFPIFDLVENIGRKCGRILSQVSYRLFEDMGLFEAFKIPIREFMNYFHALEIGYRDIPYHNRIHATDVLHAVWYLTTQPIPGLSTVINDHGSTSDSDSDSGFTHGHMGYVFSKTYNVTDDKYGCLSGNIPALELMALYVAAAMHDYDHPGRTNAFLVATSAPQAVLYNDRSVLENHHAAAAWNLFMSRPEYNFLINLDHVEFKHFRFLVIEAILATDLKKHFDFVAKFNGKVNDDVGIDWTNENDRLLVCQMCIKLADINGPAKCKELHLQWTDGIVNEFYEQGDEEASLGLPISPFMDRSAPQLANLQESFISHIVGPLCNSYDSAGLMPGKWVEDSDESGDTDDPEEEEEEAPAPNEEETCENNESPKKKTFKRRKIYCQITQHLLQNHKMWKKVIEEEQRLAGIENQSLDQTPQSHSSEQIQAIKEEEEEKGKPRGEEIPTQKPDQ
Experimental: Binding buffer: 20 mM Hepes pH 7.4, 100 μM TCEP, 1 mM MgCl2, 150 mM NaCl.

PDE3A = PDE3A (Homo sapiens, UniProt Q14432); test: Immunoprecipitation of PDE3A in HeLa cells with iTRAQ/MS proteomics; set-up: Immunoprecipitation of endogenous PDE3A in HeLa cells; endogenous in cells; host or cells: HeLa; conditions: 10 μM, four hours
PDE3A, sequence (Q14432 whole entry): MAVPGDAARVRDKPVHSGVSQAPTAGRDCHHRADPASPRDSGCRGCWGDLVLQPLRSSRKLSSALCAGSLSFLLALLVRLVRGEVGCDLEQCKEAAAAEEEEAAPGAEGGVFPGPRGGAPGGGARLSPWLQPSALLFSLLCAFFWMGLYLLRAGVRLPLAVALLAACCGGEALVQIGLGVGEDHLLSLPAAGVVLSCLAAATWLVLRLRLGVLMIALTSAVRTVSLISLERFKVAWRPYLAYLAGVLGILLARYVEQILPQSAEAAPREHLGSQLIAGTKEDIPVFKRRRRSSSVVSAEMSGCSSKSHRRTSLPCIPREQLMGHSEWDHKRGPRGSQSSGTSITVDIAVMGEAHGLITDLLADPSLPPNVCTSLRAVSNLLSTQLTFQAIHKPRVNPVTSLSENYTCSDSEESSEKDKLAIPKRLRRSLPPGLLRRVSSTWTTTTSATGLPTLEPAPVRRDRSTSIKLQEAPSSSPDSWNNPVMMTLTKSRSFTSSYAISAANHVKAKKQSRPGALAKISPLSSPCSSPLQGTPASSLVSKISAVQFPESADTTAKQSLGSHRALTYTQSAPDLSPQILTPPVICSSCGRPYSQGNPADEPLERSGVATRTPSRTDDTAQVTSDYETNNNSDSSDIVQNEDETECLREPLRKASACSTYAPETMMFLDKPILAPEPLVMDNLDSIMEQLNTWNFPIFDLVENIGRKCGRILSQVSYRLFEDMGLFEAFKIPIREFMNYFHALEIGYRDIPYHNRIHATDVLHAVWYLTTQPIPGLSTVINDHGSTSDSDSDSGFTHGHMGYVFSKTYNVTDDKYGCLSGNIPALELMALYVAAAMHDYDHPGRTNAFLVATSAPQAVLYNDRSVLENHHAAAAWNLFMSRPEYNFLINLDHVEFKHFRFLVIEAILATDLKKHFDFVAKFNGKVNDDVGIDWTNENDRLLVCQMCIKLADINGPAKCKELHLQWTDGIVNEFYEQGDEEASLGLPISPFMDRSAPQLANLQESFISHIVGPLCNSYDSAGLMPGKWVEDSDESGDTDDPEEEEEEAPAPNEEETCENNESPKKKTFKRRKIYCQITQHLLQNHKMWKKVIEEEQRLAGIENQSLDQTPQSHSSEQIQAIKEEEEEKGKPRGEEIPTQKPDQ
Text: The dependence of 6-(4-(diethylamino)-3-nitrophenyl)-5-methyl-4,5-dihydropyridazin-3(2H)-one (DNMDP) cytotoxicity on phosphodiesterase 3A (PDE3A) protein abundance indicated a possible mechanism similar to that recently observed for lenalidomide, which acts by a neomorphic or hypermorphic mechanism by stabilizing an interaction between cereblon and IKAROS Family Zinc Finger 1 (IKZF1) and IKZF3 (Krönke et al., Science 343, 301-305, 2014; Lu et al., Science 343, 305-309, 2014). […] The protein complexes in which PDE3A resides were characterized under normal conditions, and it was examined how these complexes change when PDE3A is bound to DNMDP or the non-cytotoxic PDE3 inhibitor trequinsin. PDE3A and interacting proteins from Hela cells were immunoprecipitated in the presence of DNMDP and trequinsin followed by labeling with isobaric stable isotope tags for relative abundance and quantitation by mass spectrometry (iTRAQ/MS, FIG. 13A). […]
Desalted peptides were labeled with isobaric tags for relative and absolute quantification (iTRAQ)-reagents according to the manufacturer's instructions (AB Sciex, Foster City, Calif.). […]
Reconstituted peptides were separated on an online nanoflow EASY-NLC™ 1000 UHPLC system (Thermo Fisher Scientific) and analyzed on a benchtop Orbitrap Q EXACTIVE™ mass spectrometer (Thermo Fisher Scientific). […]

EC50 (HeLa cells; Homo sapiens, HeLa cervical carcinoma cells) [nM]	Tm (° C.) (PDE3A(677-1141)) [°C]	ΔTm at 100 µM (PDE3A(677-1141)) [°C]	enrichment of SIRT7 and SLFN12 in PDE3A immunoprecipitates (PDE3A)	Compound	EC70 (HeLa cells; HeLa) [nM]	effect on HeLa cell viability / cytotoxicity (HeLa cells; HeLa)
10 to 100	58.4 ± 0.0	6	specifically enriched	CCN(CC)c1ccc(C2=NNC(=O)CC2C)cc1[N+](=O)[O-] (stereo not drawn) [DNMDP, 6-(4-(diethylamino)-3-nitrophenyl)-5-methyl-4,5-dihydropyridazin-3(2H)-one]	30	
	66.2 ± 0.0	14.2	not observed	COc1cc2c(cc1OC)-c1c/c(=N\c3c(C)cc(C)cc3C)n(C)c(=O)n1CC2 [trequinsin, 9,10-dimethoxy-3-methyl-2-(2,4,6-trimethylphenyl)imino-6,7-dihydropyrimido[6,1-a]isoquinolin-4-one]		did not affect HeLa cell viability in any detectable way
